US20230210819A1, “USE OF BENZISOSELAZOLE DERIVATIVE FOR ANTI-CORONAVIRUS AND CONTROL OF INTERSTITIAL LUNG DISEASE (ILD) RELATED TO CORONAVIRUS” (SHANGHAI YUANXI MEDICINE CORP., priority 2020, published 2023)
Entries after “also recorded” stand apart in the source; their conditions may differ.

Legend:
[1] = system: inflammatory cells in bronchoalveolar lavage fluid; experiment: Inflammatory cell assay of bronchoalveolar lavage fluid, 7-d modeling; format: in vivo, C57 mice
Method: (§1) Animals of 7-d modeling were randomly divided into 7 groups according to the table below, 6 animals per control group and 12 animals per test group.
(§2) Drug administration began 24 h or 7 d after modeling. […] The day of the first administration was counted as D1, the next day as D2, and so forth. The normal groups and Model groups were given 200 µL of normal saline daily by gavage administration.
(§3) After the mouse was fixed, its trachea and chest cavity were exposed, and the trachea and the esophagus were bluntly separated with an ophthalmic curved forceps. Two sutures were made between the trachea and the esophagus. An intravenous trocar was inserted into the trachea and ligated at the site where it entered the trachea and at its distal end. A 1 mL syringe was connected to draw in 1 mL of pre-cooled PBS and infuse it into the lung tissue. Significant filling in the lung could be seen with the naked eye. The syringe was held for 10 s and withdrawal was performed. The infusion/withdrawal cycle was repeated 3 times. The withdrawn BALF was transferred to a clean EP tube and centrifuged at 4° C., and the supernatant was collected and preserved at -80° C. The cells were subjected to routine tests.
Upon the end of the administration, the leukocytes (lymphocytes, neutrophils and monocytes) in the bronchoalveolar lavage fluids of the mice in the 7-d modeling groups were classified and counted.

[2] = system: cytokines in bronchoalveolar lavage fluid; experiment: Inflammatory factor assay of bronchoalveolar lavage fluid by ELISA; format: in vivo, C57 mice; settings: for Percent reduction in IFN-γ in bronchoalveolar lavage fluid with respect to the Model group / Percent reduction in PPAR-y in bronchoalveolar lavage fluid with respect to the Model group: negative = increase; for IL-1β in bronchoalveolar lavage fluid / IL-2 in bronchoalveolar lavage fluid / IL-6 in bronchoalveolar lavage fluid / TNF-α in bronchoalveolar lavage fluid: second half of table, head taken from the 24th table
Method: as §1, §2
as §3, with “The infusion” for “The syringe”, “was stopped” for “was held”, “The bronchoalveolar lavage fluid was assayed for inflammatory factors by ELISA.” for “The cells were subjected to routine tests.”

[3] = Toxic or side effects on mice on gavage administration; format: in vivo; settings: BS 36, 90 and 180 mg/kg
Method: Accordingly, the above dosages were selected as the dosages for administration in this experiment,
All the animals were observed once daily during the experiment for death or dying, feces, ingestion, mental state and behavior and activity. Abnormalities were recorded in time. All the animals were weighed once before grouping and once before each dose.

[4] = Dex 1-1.5 mg/kg i.p. every two days

## C[C@@H]1C[C@H]2[C@@H]3CCC4=CC(=O)C=C[C@]4(C)[C@@]3(F)[C@@H](O)C[C@]2(C)[C@@]1(O)C(=O)CO [Dex, dexamethasone, reference compound]
[1]; [4]
  Absolute leukocyte count in bronchoalveolar lavage fluid: 0.57±0.02 10^9/L
  Absolute lymphocyte count in bronchoalveolar lavage fluid: 0.46±0.03 10^9/L
  Absolute monocyte count in bronchoalveolar lavage fluid: 0.03±0.01 10^9/L
  Absolute neutrophil count in bronchoalveolar lavage fluid: 0.0±0.01 10^9/L
  Percent reduction in leukocytes in bronchoalveolar lavage fluid with respect to the Model group: 45.32%
  Percent reduction in lymphocytes in bronchoalveolar lavage fluid with respect to the Model group: 47.51%
  Percent reduction in monocytes in bronchoalveolar lavage fluid with respect to the Model group: 46.43%
  Percent reduction in neutrophils in bronchoalveolar lavage fluid with respect to the Model group: 68.52%
[2]; [4]
  IFN-γ in bronchoalveolar lavage fluid: 66.48 ± 4.88 pg/mL
  NF-κB in bronchoalveolar lavage fluid: 818.72 ± 119.21 pg/mL
  PPAR-γ in bronchoalveolar lavage fluid: 232.49 ± 39.00 pg/mL
  Percent reduction in IL-1β in bronchoalveolar lavage fluid with respect to the Model group: 23.21%
  Percent reduction in IL-2 in bronchoalveolar lavage fluid with respect to the Model group: 7.98%
  Percent reduction in IL-6 in bronchoalveolar lavage fluid with respect to the Model group: 55.36%
  Percent reduction in NF-κB in bronchoalveolar lavage fluid with respect to the Model group: 10.75%
  Percent reduction in TGF-β in bronchoalveolar lavage fluid with respect to the Model group: 15.87%
  Percent reduction in TNF-α in bronchoalveolar lavage fluid with respect to the Model group: 5.19%
  TGF-β in bronchoalveolar lavage fluid: 159.28 ± 11.09 pg/mL
  Percent reduction in IFN-γ in bronchoalveolar lavage fluid with respect to the Model group: -100.30%
  Percent reduction in PPAR-y in bronchoalveolar lavage fluid with respect to the Model group: -7.09%
  IL-1β in bronchoalveolar lavage fluid: 9.59 ± 0.90 pg/mL
  IL-2 in bronchoalveolar lavage fluid: 41.67 ± 4.69 pg/mL
  IL-6 in bronchoalveolar lavage fluid: 12.84 ± 1.02 pg/mL
  TNF-α in bronchoalveolar lavage fluid: 53.21 ± 0.90 pg/mL

## O=c1c2ccccc2[se]n1CCCCn1[se]c2ccccc2c1=O [BS, 1,4-[bis(1,2-benzisoselenazol-3(2H)-one)]butane]
[1]; BS 180 mg/kg, better than Dex (1-1.5 mg/kg)
  Effect on pulmonary inflammation (in words): significantly ameliorate pulmonary inflammation
[1]; BSH: BS 180 mg/kg gavage daily
  Absolute leukocyte count in bronchoalveolar lavage fluid: 0.43±0.04 10^9/L
  Absolute lymphocyte count in bronchoalveolar lavage fluid: 0.34±0.03 10^9/L
  Absolute monocyte count in bronchoalveolar lavage fluid: 0.02±0.00 10^9/L
  Absolute neutrophil count in bronchoalveolar lavage fluid: 0.02±0.01 10^9/L
  Percent reduction in leukocytes in bronchoalveolar lavage fluid with respect to the Model group: 58.39%
  Percent reduction in lymphocytes in bronchoalveolar lavage fluid with respect to the Model group: 60.73%
  Percent reduction in monocytes in bronchoalveolar lavage fluid with respect to the Model group: 57.14%
  Percent reduction in neutrophils in bronchoalveolar lavage fluid with respect to the Model group: 74.07%
[1]; BSL: BS 36 mg/kg gavage daily
  Absolute leukocyte count in bronchoalveolar lavage fluid: 0.87±0.04 10^9/L
  Absolute lymphocyte count in bronchoalveolar lavage fluid: 0.70±0.03 10^9/L
  Absolute monocyte count in bronchoalveolar lavage fluid: 0.04±0.01 10^9/L
  Absolute neutrophil count in bronchoalveolar lavage fluid: 0.08±0.01 10^9/L
  Percent reduction in leukocytes in bronchoalveolar lavage fluid with respect to the Model group: 16.29%
  Percent reduction in lymphocytes in bronchoalveolar lavage fluid with respect to the Model group: 19.54%
  Percent reduction in monocytes in bronchoalveolar lavage fluid with respect to the Model group: 25.00%
  Percent reduction in neutrophils in bronchoalveolar lavage fluid with respect to the Model group: 7.41%
[1]; BSM: BS 90 mg/kg gavage daily
  Absolute leukocyte count in bronchoalveolar lavage fluid: 0.69±0.06 10^9/L
  Absolute lymphocyte count in bronchoalveolar lavage fluid: 0.56±0.05 10^9/L
  Absolute monocyte count in bronchoalveolar lavage fluid: 00.3±0.01 10^9/L
  Absolute neutrophil count in bronchoalveolar lavage fluid: 0.08±0.01 10^9/L
  Percent reduction in leukocytes in bronchoalveolar lavage fluid with respect to the Model group: 32.90%
  Percent reduction in lymphocytes in bronchoalveolar lavage fluid with respect to the Model group: 35.63%
  Percent reduction in monocytes in bronchoalveolar lavage fluid with respect to the Model group: 42.86%
  Percent reduction in neutrophils in bronchoalveolar lavage fluid with respect to the Model group: 16.67%
[2]; BSH: BS 180 mg/kg gavage daily
  IFN-γ in bronchoalveolar lavage fluid: 55.70 ± 4.27 pg/mL
  NF-κB in bronchoalveolar lavage fluid: 759.34 ± 104.53 pg/mL
  PPAR-γ in bronchoalveolar lavage fluid: 237.75 ± 24.92 pg/mL
  Percent reduction in IL-1β in bronchoalveolar lavage fluid with respect to the Model group: 61.70%
  Percent reduction in IL-2 in bronchoalveolar lavage fluid with respect to the Model group: 10.87%
  Percent reduction in IL-6 in bronchoalveolar lavage fluid with respect to the Model group: 67.10%
  Percent reduction in NF-κB in bronchoalveolar lavage fluid with respect to the Model group: 17.22%
  Percent reduction in TGF-β in bronchoalveolar lavage fluid with respect to the Model group: 14.53%
  Percent reduction in TNF-α in bronchoalveolar lavage fluid with respect to the Model group: 22.95%
  TGF-β in bronchoalveolar lavage fluid: 161.82 ± 20.96 pg/mL
  Percent reduction in IFN-γ in bronchoalveolar lavage fluid with respect to the Model group: -67.81%
  Percent reduction in PPAR-y in bronchoalveolar lavage fluid with respect to the Model group: -9.52%
  IL-1β in bronchoalveolar lavage fluid: 4.78 ± 0.69 pg/mL
  IL-2 in bronchoalveolar lavage fluid: 40.37 ± 5.25 pg/mL
  IL-6 in bronchoalveolar lavage fluid: 9.47 ± 1.96 pg/mL
  TNF-α in bronchoalveolar lavage fluid: 43.24 ± 7.14 pg/mL
[2]; BSH: BS 180 mg/kg, used alone
  Inhibitory effect on inflammatory cells and proinflammatory factors (NF-κB, TNF-α, IL-1β, IL-2, IL-6) compared to Dex, in words: greater inhibitory effect
[2]; BSL: BS 36 mg/kg gavage daily
  IFN-γ in bronchoalveolar lavage fluid: 38.74 ± 4.74 pg/mL
  NF-κB in bronchoalveolar lavage fluid: 867.20 ± 174.12 pg/mL
  PPAR-γ in bronchoalveolar lavage fluid: 38.74 ± 4.74 pg/mL
  Percent reduction in IL-1β in bronchoalveolar lavage fluid with respect to the Model group: 17.88%
  Percent reduction in IL-2 in bronchoalveolar lavage fluid with respect to the Model group: 4.03%
  Percent reduction in IL-6 in bronchoalveolar lavage fluid with respect to the Model group: 49.92%
  Percent reduction in NF-κB in bronchoalveolar lavage fluid with respect to the Model group: 5.46%
  Percent reduction in TGF-β in bronchoalveolar lavage fluid with respect to the Model group: 0.42%
  Percent reduction in TNF-α in bronchoalveolar lavage fluid with respect to the Model group: 7.38%
  TGF-β in bronchoalveolar lavage fluid: 188.54 ± 24.55 pg/mL
  Percent reduction in IFN-γ in bronchoalveolar lavage fluid with respect to the Model group: -16.73%
  Percent reduction in PPAR-y in bronchoalveolar lavage fluid with respect to the Model group: -5.79%
  IL-1β in bronchoalveolar lavage fluid: 10.26 ± 1.29 pg/mL
  IL-2 in bronchoalveolar lavage fluid: 43.46 ± 7.51 pg/mL
  IL-6 in bronchoalveolar lavage fluid: 14.41 ± 1.33 pg/mL
  TNF-α in bronchoalveolar lavage fluid: 51.98 ± 4.37 pg/mL
[2]; BSM: BS 90 mg/kg gavage daily
  IFN-γ in bronchoalveolar lavage fluid: 53.31 ± 5.29 pg/mL
  NF-κB in bronchoalveolar lavage fluid: 824.16 ± 155.14 pg/mL
  Percent reduction in IL-1β in bronchoalveolar lavage fluid with respect to the Model group: 47.93%
  Percent reduction in IL-2 in bronchoalveolar lavage fluid with respect to the Model group: 9.81%
  Percent reduction in IL-6 in bronchoalveolar lavage fluid with respect to the Model group: 54.37%
  Percent reduction in NF-κB in bronchoalveolar lavage fluid with respect to the Model group: 10.15%
  Percent reduction in TGF-β in bronchoalveolar lavage fluid with respect to the Model group: 2.87%
  Percent reduction in TNF-α in bronchoalveolar lavage fluid with respect to the Model group: 11.68%
  TGF-β in bronchoalveolar lavage fluid: 178.54 ± 14.64 pg/mL
  Percent reduction in IFN-γ in bronchoalveolar lavage fluid with respect to the Model group: -60.63%
  Percent reduction in PPAR-y in bronchoalveolar lavage fluid with respect to the Model group: -6.09%
  IL-1β in bronchoalveolar lavage fluid: 6.50 ± 1.38 pg/mL
  IL-2 in bronchoalveolar lavage fluid: 40.84 ± 3.88 pg/mL
  IL-6 in bronchoalveolar lavage fluid: 13.13 ± 1.03 pg/mL
  TNF-α in bronchoalveolar lavage fluid: 49.57 ± 5.97 pg/mL
[3]
  Toxic or side effects (in words): no toxic and side effects; also recorded: no significant toxic or side effects
